Experimental data reported in US20190336579A1, “COMPOSITIONS AND METHODS TO INDUCE TARGETED APOPTOSIS BY MODULATING PROTEIN TYROSINE PHOSPHATASE 13 (PTPN13)” (National Jewish Health, priority 2010, published 2019).

How the values were obtained:
[1] = tested on: PTPN13 mRNA; test: PTPN13 mRNA expression by quantitative PCR in lung fibroblasts; assay type: cell-based, human; conditions: NHLF, FHLF and MRC5 cells; TNF-α 10 ng/ml, IFN-γ 50 U/ml; 6 hours; compared to untreated cells
Method: (§1) To assess the effects of these cytokines on PTPN13 expression, non-diseased normal human lung fibroblasts (NHLF), fibrotic human lung fibroblasts (FHLF) and a fetal lung fibroblast cell line, MRC5 cells, were treated with TNF-α (10/ng/ml), IFN-γ (50 U/ml) or with both cytokines for 6 hours. PTPN13 expression was measured by quantitative PCR (FIG. 2A). The primary lung fibroblasts from normal and fibrotic lung had equivalent levels of PTPN13 expression to the MRC5 lung fibroblast cell line. […] Treatment with TNF-α alone caused a 40% decrease in PTPN13 expression. Combined exposure to TNF-α and IFN-γ decreased PTPN13 mRNA expression by 80%. Protein lysates from normal, fibrotic and MRC5 fibroblasts treated for 36 hours with TNF-α (10/ng/ml), IFN-γ (50 U/ml) or with both cytokines were then analyzed for PTPN13 expression. […]
FIG. 2: TNF-α and IFN-γ decrease PTPN13 expression. […] Top panel is a quantitative RT-PCR analysis of PTPN13 mRNA lower panel is a Western blot analysis for PTPN13 protein. […] Caspase-8 was measured using a fluorescence based assay.
Total RNA was obtained from 1×10^6 MRC5 cells using the Qiagen RNA Miniprep Kit (Qiagen) following the manufacturer's instructions. […] The fluorescence values of the threshold cycles were collected and normalized to GAPDH. Data are expressed as the relative change in mRNA expression compared to the untreated control.

[2] = tested on: PTPN13 protein; test: PTPN13 protein expression by Western blot in lung fibroblasts; assay type: cell-based, human; conditions: normal, fibrotic and MRC5 fibroblasts; TNF-α 10 ng/ml, IFN-γ 50 U/ml; 36 hours
Method: as §1
In one exemplary method, to assess whether PTPN13 expression prevents Fas-induced apoptosis, PTPN13 expression was knocked-down using siRNA. […] Apoptosis was assayed by quantifying activation of caspase-3 and caspase-8 (FIG. 3C).
FIG. 3: Decreased PTPN13 expression sensitizes fibroblasts to Fas-induced apoptosis. […] PTPN13 expression was quantified by western blot analysis and densitometry was performed. […] Fas activating antibody (250 ng/ml) (Fas activating antibody) or PBS (unstimulated) was added for 2 hours before analyzing Caspase-8 activation by a fluorescence-based assay. […]

[3] = Bleomycin murine model of fibrosis, mortality; assay type: in vivo, mice; conditions: 2.5 U/kg bleomycin into the trachea
Method: To assess the effect of PTPN13 on development of fibrosis in vivo, we used a murine model of fibrosis in a PTPN13−/− mouse. The PTPN13−/− mouse has been characterized by Grusby to have abnormal STAT4 signaling which leads to augmented skewing toward TH1 or TH2 phenotypes. 2.5 U/kg bleomycin was administered directly into the tracheas of PTPN13−/− mice along with wildtype controls. […] Due to drastic weight decreases in the wildtype mice, two weeks was chosen as the end time point. […] Of the 20 wildtype mice treated with bleomycin, 11 (55%) died before two weeks as compared to the PTPN13−/− mice where three of the 20 (15%) died. Saline had no effect on mortality. Then static compliance was measured. […] Collagen content was measured in the lung using a hydroxyproline assay. […] To determine a possible cause for the decreased static compliance in the PTPN13−/− mice, we also measured other markers of lung disease, such as cellular infiltration and capillary leak. We measured the cellularity of the bronchoalveolar fluid (BALF). […] Capillary leak was determined by albumin present in the BALF (FIG. 6F). […] To validate these findings, stereology was performed on lung sections to quantify presence of collagen and diseased areas. […] Percentage of diseased lung was also measured by stereology. […]
FIG. 6: Deficiency of PTPN13−/− Leads to Decreased Bleomycin-induced Lung Fibrosis. […] Collagen content as measured by stereology. […]

Substance	decrease in PTPN13 mRNA expression [1]	PTPN13 protein expression (Western blot) [2]	mortality before two weeks ([3]; PTPN13−/− mice, three of 20 died) [%]	mortality before two weeks ([3]; wildtype mice, 11 of 20 died) [%]
IFN-γ: Recombinant human IFN-γ purchased from R&D Systems	minimal decrease	not decreased	–	–
TNF-α	40%	decreased	–	–
bleomycin	–	–	15	55
